Common to all, as to type: cell-based
In assay [1] the test system is ATP receptors present on the cell membrane of COS-7 cells. Put plainly: Intracellular Ca^2+ level increased by ATP stimulation, COS-7 cells transfected with pSica-5. The following applies: 1 mM ATP; host cell COS-7 transfected with pSica-5. The method, then:
(§1) pSica-5 was transfected into COS-7 cells or HeLa cells which have been cultured on a 24-well plate, using a transfection reagent (TransIT-LT1 (Mirus)). Then, the cells were cultured for 16 hours, and then the cell culture medium was exchanged with 200 μL of a PBS buffer solution supplemented with coeleterazine, which is the specific substrate, and 2 μM ionomycin. The values of luminescence change obtained thereafter were monitored by a luminescent plate reader (Mithras LB940; Berthold) (FIG. 7(A)). Four minutes after stabilization of the background luminescence, Ca^2+ was added to the cells on the wells at concentrations ranging from 10^−3.5 M to 10^−5.5 M. Thereafter, the changes in the luminescence values were immediately monitored by the above-mentioned luminescence plate reader. Changes in the luminescence values, which were dependent on the concentration of added Ca^2+, were monitored. Based on the values of luminescence fluctuations in this Ca^2+ concentration range, three kinds of calibration curves were produced with respect to the Ca^2+ concentration in the cultured cells. Variances in the luminescence intensity induced by the ATP concentration in COS-7, MCF-7 and HeLa cells, which had been respectively transfected with pSica-5, were measured (FIG. 7(B)). […]

Assay [2] deals with ATP receptor which is an endogenous membrane receptor of COS-7 cells. Put plainly: ATP concentration-dependent luminescence change in COS-7 cells carrying pSica-5. As for the experimental part: For example, an ATP receptor which is an endogenous membrane receptor of COS-7 cells, is stimulated by 100 mM ATP, to thereby increase the concentration of Ca^2+. CaM in the probe responds to the elevated Ca^2+ Level, and as a result, the luminescence intensity is reduced. This phenomenon depends on the ATP concentration;
pSica-5 was transfected into COS-7 cells which have been cultured on a 24-well plate, using a transfection reagent (TransIT-LT1 (Mirus)). Then, the cells were cultured for 16 hours, and then the culture medium was exchanged with 200 μL of a mixed solution of a HBSS buffer (containing 1.3 mM Ca^2+) and the substrate. The values of luminescence change obtained thereafter were monitored by a luminescent plate reader (FIG. 5). After about 5 minutes, ATP was added at different concentrations, and changes in the luminescence values obtained thereafter were monitored. […] Meanwhile, no detectable change was recognized in the luminescence values for the buffer solution itself (phosphate buffer saline; PBS).

The test system of assay [3] is ATP receptors present on the cell membrane of MCF-7 cells. Briefly: Intracellular Ca^2+ level increased by ATP stimulation, MCF-7 cells transfected with pSica-5. As to conditions: 1 mM ATP; host cell MCF-7 transfected with pSica-5. As for the experimental part:
as §1

Assay [4] has as its target T1, GR LBD (human glucocorticoid receptor) (Homo sapiens, UniProt P04150).
T1 construct: expressed in transfected cells
T1 sequence (P04150 524-758 limits assumed): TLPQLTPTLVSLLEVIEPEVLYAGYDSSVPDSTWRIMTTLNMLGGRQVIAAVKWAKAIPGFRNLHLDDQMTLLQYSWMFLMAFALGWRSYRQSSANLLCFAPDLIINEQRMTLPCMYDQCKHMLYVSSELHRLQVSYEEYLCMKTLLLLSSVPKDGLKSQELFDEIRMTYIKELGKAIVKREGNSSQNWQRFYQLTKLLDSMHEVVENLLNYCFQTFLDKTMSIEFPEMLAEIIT
Briefly: Ligand sensitivity of living cells transfected with pSimgr. The following applies: steroid hormone sensitivity (FIG. 9(C)). An excerpt: These plasmids were designated as pSimar and pSimgr, respectively.

For a further assay, the target named is T2, calmodulin (CaM) (Xenopus laevis, UniProt P0DP33).
T2 construct: (CaM; 1-150 AA; GenBank/NM001087395); expressed in transfected cells; host or cells: COS-7 or HeLa cells, pSica-5 in pcDNA3.1(+)
Briefly: Ca^2+ concentration-dependent luminescence intensity in living cells transfected with pSica-5. As to conditions: for EC50: 2 μM ionomycin, PBS, read-out: 50% effective concentration (EC50) based on changes in luminescence intensities. The method, then: PCR amplification was carried out to introduce KpnI and BamHI, which are restriction enzyme sites, into the two termini of a cDNA encoding calmodulin, which is a Xenopus laevis (African clawed frog)-derived Ca^2+ recognition protein (CaM; 1-150 AA; GenBank/NM001087395). On the other hand, as an optimal luminescent enzyme which can be linked to the CaM as a single-molecule-format probe, Gaussia princeps-derived luciferase (GLuc; 1-189 AA; GenBank/AY015993) was used. Five fragment pairs were generated by fragmentizing five sites of the cDNA of GLuc by PCR reaction, and were used in the examination of the optimal partition sites for GLuc (FIG. 3), which will be discussed in Example 2.
pSica-5 was transfected into COS-7 cells or HeLa cells which have been cultured on a 24-well plate, using a transfection reagent (TransIT-LT1 (Mirus)). Then, the cells were cultured for 16 hours, and then the cell culture medium was exchanged with 200 μL of a PBS buffer solution supplemented with coeleterazine, which is the specific substrate, and 2 μM ionomycin. The values of luminescence change obtained thereafter were monitored by a luminescent plate reader (Mithras LB940; Berthold) (FIG. 7(A)). Four minutes after stabilization of the background luminescence, Ca^2+ was added to the cells on the wells at concentrations ranging from 10^−3.5 M to 10^−5.5 M. Thereafter, the changes in the luminescence values were immediately monitored by the above-mentioned luminescence plate reader. Changes in the luminescence values, which were dependent on the concentration of added Ca^2+, were monitored. Based on the values of luminescence fluctuations in this Ca^2+ concentration range, three kinds of calibration curves were produced with respect to the Ca^2+ concentration in the cultured cells.

Read-outs that look alike come from different tables or passages of the source.

`Nc1ncnc2c1ncn2[C@@H]1O[C@H](COP(=O)(O)OP(=O)(O)OP(=O)(O)O)[C@@H](O)[C@H]1O` [ATP]: the results for the “Measured average of Ca^2+ concentrations (ave)” value in assay [1] and in assay [3] were 37.4 µM and 13 µM, respectively. Besides, the “changes in the luminescence values” in assay [2] (COS-7 cells with pSica-5, 1 mM, 100 μM and 10 μM ATP, HBSS buffer containing 1.3 mM Ca^2+) is “stimulant dose-dependent changes”. For the same molecule, the luminescence intensity entry in assay [2] (COS-7 cells, probe with GLuc dissected at site #5, 100 mM ATP (FIG. 5 legend)) is reported as “reduced”.
In the case of `C[C@]12CCC(=O)C=C1CC[C@@H]1[C@@H]2[C@@H](O)C[C@@]2(C)[C@H]1CC[C@]2(O)C(=O)CO` [cortisol], the “sensitivity of cells transfected with pSimgr” value in assay [4] was “strong sensitivity”.
As for `[Ca+2]` [Ca^2+], the EC50 at calmodulin (CaM) (COS-7 cells transfected with pSica-5) stood at 25 µM; on calmodulin (CaM) (HeLa cells transfected with pSica-5), 50 µM. Besides, at calmodulin (CaM) (HeLa cells, from the luminescence values), the “dissociation coefficient (Kd) between CaM and Ca^2+” value is on record as 0.63×10^−17 M^4.
